From ChEMBL document CHEMBL1153480, “Study on the potential anti-cancer activity of phosphonium and ammonium-based ionic liquids” (2009)

Columns and labels:
Type in all cases: functional
TK-10 = assay: cells; conditions: Homo sapiens
Description: Growth inhibition of human TK10 cells assessed as drug level required for 50% reduction in net protein increase by SRB assay relative to control

CCRF-CEM [1] = assay: cells; conditions: Homo sapiens
Description: Growth inhibition of human CCRF-CEM cells assessed as drug level required for 50% reduction in net protein increase by SRB assay relative to control

Malme-3M = assay: cells; conditions: Homo sapiens
Description: Growth inhibition of human MALME-3M cells assessed as drug level required for 50% reduction in net protein increase by SRB assay relative to control

MCF7 = assay: cells; conditions: Homo sapiens
Description: Growth inhibition of human MCF7 cells assessed as drug level required for 50% reduction in net protein increase by SRB assay relative to control

SNB-75 [2] = assay: cells; conditions: Homo sapiens
Description: Growth inhibition of human SNB75 cells assessed as cell growth at 10 uM by SRB assay

COLO 205 [3] = assay: cells; conditions: Homo sapiens
Description: Growth inhibition of human COLO205 cells assessed as cell growth at 10 uM by SRB assay

HOP-62 [4] = assay: cells; conditions: Homo sapiens
Description: Growth inhibition of human HOP62 cells assessed as drug level required for 50% reduction in net protein increase by SRB assay relative to control

HOP-62 [5] = assay: cells; conditions: Homo sapiens; remark: listed apart in the source
Description: Growth inhibition of human HOP62 cells assessed as cell growth at 10 uM by SRB assay

cells [6] = conditions: Homo sapiens, Hs-578T
Description: Growth inhibition of human Hs 578T cells assessed as drug level required for 50% reduction in net protein increase by SRB assay relative to control

[7] = Cytotoxicity against human CAKI cells by SRB assay; conditions: read-out: LC50 (the source's name)
KM12 = assay: cells; conditions: Homo sapiens
Description: Growth inhibition of human KM12 cells assessed as drug level required for 50% reduction in net protein increase by SRB assay relative to control

NCI-H460 = assay: cells; conditions: Homo sapiens
Description: Growth inhibition of human NCI-H460 cells assessed as cell growth at 10 uM by SRB assay

SN12C [8] = assay: cells; conditions: Homo sapiens
Description: Growth inhibition of human SN12C cells assessed as drug level required for 50% reduction in net protein increase by SRB assay relative to control

SK-MEL-2 = assay: cells; conditions: Homo sapiens
Description: Growth inhibition of human SK-MEL-2 cells assessed as cell growth at 10 uM by SRB assay

U-251 = assay: cells; conditions: Homo sapiens
Description: Growth inhibition of human U251 cells assessed as drug level required for 50% reduction in net protein increase by SRB assay relative to control

A549 [9] = assay: cells; conditions: Homo sapiens
Description: Growth inhibition of human A549 cells assessed as drug level required for 50% reduction in net protein increase by SRB assay relative to control

MDA-MB-468 = assay: Cytotoxicity against human MDA-MB-468 cells by SRB assay; conditions: read-out: LC50 (the source's name)
cells [10] = conditions: Homo sapiens, Hs-578T; read-out: LC50 (the source's name)
Description: Cytotoxicity against human Hs 578T cells by SRB assay

OVCAR-4 [11] = assay: cells; conditions: Homo sapiens
Description: Growth inhibition of human OVCAR4 cells assessed as cell growth at 10 uM by SRB assay

MOLT-4 = assay: cells; conditions: Homo sapiens
Description: Growth inhibition of human MOLT4 cells assessed as drug level required for 50% reduction in net protein increase by SRB assay relative to control

SK-OV-3 [12] = assay: Cytotoxicity against human SKOV3 cells by SRB assay; conditions: read-out: LC50 (the source's name)
HCC 2998 = assay: Cytotoxicity against human HCC2998 cells by SRB assay; conditions: read-out: LC50 (the source's name)
SF-268 [13] = assay: cells; conditions: Homo sapiens
Description: Growth inhibition of human SF268 cells assessed as drug level required for 50% reduction in net protein increase by SRB assay relative to control

A549 [14] = assay: cells; conditions: Homo sapiens; remark: listed apart in the source
Description: Growth inhibition of human A549 cells assessed as cell growth at 10 uM by SRB assay

A498 = assay: cells; conditions: Homo sapiens
Description: Growth inhibition of human A498 cells assessed as drug level required for 50% reduction in net protein increase by SRB assay relative to control

HCT-116 [15] = assay: cells; conditions: Homo sapiens
Description: Growth inhibition of human HCT116 cells assessed as drug level required for 50% reduction in net protein increase by SRB assay relative to control

CCRF-CEM [16] = assay: cells; conditions: Homo sapiens; remark: listed apart in the source
Description: Growth inhibition of human CCRF-CEM cells assessed as cell growth at 10 uM by SRB assay

NCI-H322M = assay: cells; conditions: Homo sapiens
Description: Growth inhibition of human NCI-H322M cells assessed as drug level required for 50% reduction in net protein increase by SRB assay relative to control

DU-145 = assay: Cytotoxicity against human DU145 cells by SRB assay; conditions: read-out: LC50 (the source's name)
IGROV-1 = assay: cells; conditions: Homo sapiens
Description: Growth inhibition of human IGROV1 cells assessed as drug level required for 50% reduction in net protein increase by SRB assay relative to control

HCT-116 [17] = assay: cells; conditions: Homo sapiens; remark: listed apart in the source
Description: Growth inhibition of human HCT116 cells assessed as cell growth at 10 uM by SRB assay

ACHN = assay: cells; conditions: Homo sapiens
Description: Growth inhibition of human ACHN cells assessed as drug level required for 50% reduction in net protein increase by SRB assay relative to control

BT-549 = assay: cells; conditions: Homo sapiens
Description: Growth inhibition of human BT549 cells assessed as drug level required for 50% reduction in net protein increase by SRB assay relative to control

SNB-75 [18] = assay: cells; conditions: Homo sapiens; remark: listed apart in the source
Description: Growth inhibition of human SNB75 cells assessed as drug level required for 50% reduction in net protein increase by SRB assay relative to control

RPMI-8226 [19] = assay: cells; conditions: Homo sapiens
Description: Growth inhibition of human RPMI8226 cells assessed as cell growth at 10 uM by SRB assay

K562 = assay: cells; conditions: Homo sapiens
Description: Growth inhibition of human K562 cells assessed as drug level required for 50% reduction in net protein increase by SRB assay relative to control

OVCAR-8 [20] = assay: Cytotoxicity against human OVCAR8 cells by SRB assay; conditions: read-out: LC50 (the source's name)
SF-268 [21] = assay: Cytotoxicity against human SF268 cells by SRB assay; conditions: read-out: LC50 (the source's name)
MDA-MB-435 = assay: cells; conditions: Homo sapiens
Description: Growth inhibition of human MDA-MB-435 cells assessed as drug level required for 50% reduction in net protein increase by SRB assay relative to control

RPMI-8226 [22] = assay: cells; conditions: Homo sapiens; remark: listed apart in the source
Description: Growth inhibition of human RPMI8226 cells assessed as drug level required for 50% reduction in net protein increase by SRB assay relative to control

RXF 393 [23] = assay: cells; conditions: Homo sapiens
Description: Growth inhibition of human RFX393 cells assessed as drug level required for 50% reduction in net protein increase by SRB assay relative to control

HL-60(TB) = assay: cells; conditions: Homo sapiens
Description: Growth inhibition of human HL-60(TB) cells assessed as cell growth at 10 uM by SRB assay

OVCAR-3 = assay: cells; conditions: Homo sapiens
Description: Growth inhibition of human OVCAR-3 cells assessed as drug level required for 50% reduction in net protein increase by SRB assay relative to control

SN12C [24] = assay: cells; conditions: Homo sapiens; remark: listed apart in the source
Description: Growth inhibition of human SN12C cells assessed as cell growth at 10 uM by SRB assay

SK-OV-3 [25] = assay: cells; conditions: Homo sapiens
Description: Growth inhibition of human SKOV3 cells assessed as drug level required for 50% reduction in net protein increase by SRB assay relative to control

NCI-H522 [26] = assay: cells; conditions: Homo sapiens
Description: Growth inhibition of human NCI-H522 cells assessed as drug level required for 50% reduction in net protein increase by SRB assay relative to control

RXF 393 [27] = assay: cells; conditions: Homo sapiens; remark: listed apart in the source
Description: Growth inhibition of human RFX393 cells assessed as cell growth at 10 uM by SRB assay

UACC-62 = assay: cells; conditions: Homo sapiens
Description: Growth inhibition of human UACC62 cells assessed as drug level required for 50% reduction in net protein increase by SRB assay relative to control

786-0 [28] = assay: cells; conditions: Homo sapiens
Description: Growth inhibition of human 786-0 cells assessed as drug level required for 50% reduction in net protein increase by SRB assay relative to control

SR [29] = assay: Cytotoxicity against human SR cells by SRB assay; conditions: read-out: LC50 (the source's name)
HOP-62 [30] = assay: Cytotoxicity against human HOP62 cells by SRB assay; conditions: read-out: LC50 (the source's name)
786-0 [31] = assay: cells; conditions: Homo sapiens, read-out: LC50 (the source's name)
Description: Cytotoxicity against human 786-0 cells by SRB assay

SF-295 = assay: Cytotoxicity against human SF295 cells by SRB assay; conditions: read-out: LC50 (the source's name)
NCI-H226 [32] = assay: cells; conditions: Homo sapiens
Description: Growth inhibition of human NCI-H226 cells assessed as cell growth at 10 uM by SRB assay

T47D = assay: cells; conditions: Homo sapiens
Description: Growth inhibition of human T47D cells assessed as cell growth at 10 uM by SRB assay

cells [33] = conditions: Homo sapiens, Hs-578T; remark: listed apart in the source
Description: Growth inhibition of human Hs 578T cells assessed as cell growth at 10 uM by SRB assay

SW-620 [34] = assay: Cytotoxicity against human SW620 cells by SRB assay; conditions: read-out: LC50 (the source's name)
COLO 205 [35] = assay: cells; conditions: Homo sapiens; remark: listed apart in the source
Description: Growth inhibition of human COLO205 cells assessed as drug level required for 50% reduction in net protein increase by SRB assay relative to control

HT-29 = assay: cells; conditions: Homo sapiens
Description: Growth inhibition of human HT-29 cells assessed as cell growth at 10 uM by SRB assay

COLO 205 [36] = assay: Cytotoxicity against human COLO205 cells by SRB assay; conditions: read-out: LC50 (the source's name)
SW-620 [37] = assay: cells; conditions: Homo sapiens
Description: Growth inhibition of human SW620 cells assessed as drug level required for 50% reduction in net protein increase by SRB assay relative to control

SR [38] = assay: cells; conditions: Homo sapiens
Description: Growth inhibition of human SR cells assessed as drug level required for 50% reduction in net protein increase by SRB assay relative to control

cells [39] = conditions: Homo sapiens, CAKI
Description: Growth inhibition of human CAKI cells assessed as drug level required for 50% reduction in net protein increase by SRB assay relative to control

OVCAR-4 [40] = assay: cells; conditions: Homo sapiens; remark: listed apart in the source
Description: Growth inhibition of human OVCAR4 cells assessed as drug level required for 50% reduction in net protein increase by SRB assay relative to control

NCI-H522 [41] = assay: cells; conditions: Homo sapiens; remark: listed apart in the source
Description: Growth inhibition of human NCI-H522 cells assessed as cell growth at 10 uM by SRB assay

SF-268 [42] = assay: cells; conditions: Homo sapiens; remark: listed apart in the source
Description: Growth inhibition of human SF268 cells assessed as cell growth at 10 uM by SRB assay

OVCAR-8 [43] = assay: cells; conditions: Homo sapiens
Description: Growth inhibition of human OVCAR8 cells assessed as cell growth at 10 uM by SRB assay

NCI-H226 [44] = assay: cells; conditions: Homo sapiens; remark: listed apart in the source
Description: Growth inhibition of human NCI-H226 cells assessed as drug level required for 50% reduction in net protein increase by SRB assay relative to control

RXF 393 [45] = assay: Cytotoxicity against human RFX393 cells by SRB assay; conditions: read-out: LC50 (the source's name)
LOX IMVI = assay: cells; conditions: Homo sapiens
Description: Growth inhibition of human LOXIMVI cells assessed as drug level required for 50% reduction in net protein increase by SRB assay relative to control

OVCAR-4 [46] = assay: Cytotoxicity against human OVCAR4 cells by SRB assay; conditions: read-out: LC50 (the source's name)

CCCCCCCCCCCCCCCCCCPCCCCCCCCCCCCCC.O=S(=O)(NS(=O)(=O)C(F)(F)F)C(F)(F)F (stereo unspecified)
GI50 (TK-10): 341 nM
GI50 (CCRF-CEM [1]): 26 nM
GI50 (Malme-3M): 29 nM
GI50 (MCF7): 144 nM
growth at 10 µM (SNB-75 [2]): -31.4%
growth at 10 µM (COLO 205 [3]): -65.4%
GI50 (HOP-62 [4]): 435 nM
growth at 10 µM (HOP-62 [5]): -2.18%
GI50 (cells [6]): 53 nM
CC50 [7]: > 100000 nM
GI50 (KM12): 49 nM
growth at 10 µM (NCI-H460): -59.4%
GI50 (SN12C [8]): 42 nM
growth at 10 µM (SK-MEL-2): -3.57%
GI50 (U-251): 41 nM
GI50 (A549 [9]): 292 nM
CC50 (MDA-MB-468): 2560 nM
CC50 (cells [10]): > 100000 nM
growth at 10 µM (OVCAR-4 [11]): -91.8%
GI50 (MOLT-4): 69 nM
CC50 (SK-OV-3 [12]): > 100000 nM
CC50 (HCC 2998): > 100000 nM
GI50 (SF-268 [13]): 72 nM
growth at 10 µM (A549 [14]): -35%
GI50 (A498): 310 nM
GI50 (HCT-116 [15]): 61 nM
growth at 10 µM (CCRF-CEM [16]): 26.4%
GI50 (NCI-H322M): 321 nM
CC50 (DU-145): > 100000 nM
GI50 (IGROV-1): 71 nM
growth at 10 µM (HCT-116 [17]): -70.8%
GI50 (ACHN): 260 nM
GI50 (BT-549): 66 nM
GI50 (SNB-75 [18]): 76 nM
growth at 10 µM (RPMI-8226 [19]): 59.4%
GI50 (K562): 41 nM
CC50 (OVCAR-8 [20]): > 100000 nM
CC50 (SF-268 [21]): > 100000 nM
GI50 (MDA-MB-435): 45 nM
GI50 (RPMI-8226 [22]): 16 nM
GI50 (RXF 393 [23]): 141 nM
growth at 10 µM (HL-60(TB)): 43.1%
GI50 (OVCAR-3): 51 nM
growth at 10 µM (SN12C [24]): -79.1%
GI50 (SK-OV-3 [25]): 2610 nM
GI50 (NCI-H522 [26]): 105 nM
growth at 10 µM (RXF 393 [27]): -97.7%
GI50 (UACC-62): 45 nM
GI50 (786-0 [28]): 253 nM
CC50 (SR [29]): 8080 nM
CC50 (HOP-62 [30]): > 100000 nM
CC50 (786-0 [31]): > 100000 nM
CC50 (SF-295): > 100000 nM
growth at 10 µM (NCI-H226 [32]): -1.45%
growth at 10 µM (T47D): -14.8%
growth at 10 µM (cells [33]): -35.8%
CC50 (SW-620 [34]): > 100000 nM
GI50 (COLO 205 [35]): 182 nM
growth at 10 µM (HT-29): -58.2%
CC50 (COLO 205 [36]): > 100000 nM
GI50 (SW-620 [37]): 49 nM
GI50 (SR [38]): 72 nM
GI50 (cells [39]): 236 nM
GI50 (OVCAR-4 [40]): 73 nM
growth at 10 µM (NCI-H522 [41]): -71.4%
growth at 10 µM (SF-268 [42]): -4.6%
growth at 10 µM (OVCAR-8 [43]): -79.9%
GI50 (NCI-H226 [44]): 105 nM
CC50 (RXF 393 [45]): > 100000 nM
GI50 (LOX IMVI): 58 nM
CC50 (OVCAR-4 [46]): > 100000 nM
